Reference: ChEMBL document CHEMBL5500396, “Discovery, Multiparametric Optimization, and Solid-State Driven Identification of CHF-6550, a Novel Soft Dual Pharmacology Muscarinic Antagonist and β2 Agonist (MABA) for the Inhaled Treatment of Respiratory Diseases” (J Med Chem, 2024)

Experiments:
[1] = target: Voltage-gated inwardly rectifying potassium channel KCNH2 (Homo sapiens, UniProt Q12809)
Description: Inhibition of human ERG by patch clamp assay

Cavia porcellus [2] = assay: Bronchodilating effect in acetylcholine induced male albino Dunkin-Hartley guinea pig model assessed as maximal efficacy at 0.3 nmol/kg, IT(Intratracheal) administered with compound followed by acetylcholine addition at 5 to 30 mins and measured 1 hrs post compound treatment relative to control
[3] = target: Sodium channel protein type 5 subunit alpha (Homo sapiens, UniProt Q14524)
Description: Inhibition of human Nav1.5

Cavia porcellus [4] = assay: Inhibition of acetylcholine induced bronchoconstriction in male albino Dunkin-Hartley guinea pig model at 0.3 nmol/kg, IT(Intratracheal) preadministered with compound followed by acetylcholine addition at 5 to 30 mins and measured 16 hrs post compound treatment relative to control; conditions: read-out: INH
[5] = Half-life in guinea pig at 3 nmol/kg, IT(Intratracheal) administered as dry powder; conditions: in vivo, inhaled or intranasal
[6] = target: Beta-2 adrenergic receptor (Cavia porcellus, UniProt Q8K4Z4); assay: Agonist activity at beta2 adrenoceptor in male albino Dunkin-Hartley guinea pig trachea assessed as inhibition of histamine induced smooth muscle contraction
[7] = target: Beta-2 adrenergic receptor (Homo sapiens, UniProt P07550)
Description: Displacement of [125I]-Cyanopindolol from human beta2 adrenoceptor assessed as inhibition constant incubated for 1 hrs by Microbeta scintillation counter

Cavia porcellus [8] = organism: Cavia porcellus; assay: animal or person; conditions: albino Dunkin-Hartley, 16 h, read-out: INH
Description: Inhibition of acetylcholine induced bronchoconstriction in male albino Dunkin-Hartley guinea pig model at 0.3 nmol/kg, IT(Intratracheal) preadministered with compound followed by acetylcholine addition at 5 to 30 mins in presence of ICI-118551 and measured 16 hrs post compound treatment relative to control

Cavia porcellus [9] = assay: Inhibition of histamine induced bronchoconstriction in male albino Dunkin-Hartley guinea pig model at 0.3 nmol/kg, IT(Intratracheal) preadministered with compound followed by histamine addition at 5 to 30 mins and measured 16 hrs post compound treatment relative to control; conditions: read-out: INH
Cavia porcellus [10] = organism: Cavia porcellus; assay: animal or person; conditions: albino Dunkin-Hartley, 1 h, read-out: INH
Description: Inhibition of acetylcholine induced bronchoconstriction in male albino Dunkin-Hartley guinea pig model at 0.3 nmol/kg, IT(Intratracheal) preadministered with compound followed by acetylcholine addition at 5 to 30 mins in presence of ICI-118551 and measured 1 hrs post compound treatment relative to control

in vivo [11] = conditions: rat, iv, 125 ug
Description: Volume of distribution at steady state in rat at 125 ug, iv measured after 1 hrs by LC-MS analysis

Cavia porcellus [12] = assay: Inhibition of acetylcholine induced bronchoconstriction in male albino Dunkin-Hartley guinea pig model at 0.3 nmol/kg, IT(Intratracheal) preadministered with compound followed by acetylcholine addition at 5 to 30 mins and measured 1 hrs post compound treatment relative to control; conditions: read-out: INH
in vivo [13] = conditions: male, Dunkin-Hartley, guinea pig, inhaled or intranasal, 1 mM
Description: Toxicity in male albino Dunkin-Hartley guinea pig model assessed as inhibition of carbachol-induced salivation at 1 mM, preadministered with compound for 10 mins via aerosol followed by anesthesia treatment 3 hrs post compound addition and further treated with carbachol and measured every 5 mins for 4 times

in vivo [14] = conditions: male, Dunkin-Hartley, guinea pig, inhaled or intranasal, 3 mM
Description: Toxicity in male albino Dunkin-Hartley guinea pig model assessed as inhibition of carbachol-induced salivation at 3 mM, preadministered with compound for 10 mins via aerosol followed by anesthesia treatment 3 hrs post compound addition and further treated with carbachol and measured every 5 mins for 4 times

in vitro [15] = conditions: human, hepatocytes
Description: Metabolic stability in human hepatocytes assessed as clearance measured per 10^6 cells at 1 uM incubated for 90 mins by LC-MS/MS analysis

in vitro [16] = conditions: rat, hepatocytes
Description: Metabolic stability in rat hepatocytes assessed as clearance measured per 10^6 cells at 1 uM incubated for 90 mins by LC-MS/MS analysis

Cavia porcellus [17] = organism: Cavia porcellus; assay: animal or person; conditions: albino Dunkin-Hartley, 1 h
Description: Bronchodilating effect in acetylcholine induced male albino Dunkin-Hartley guinea pig model assessed as maximal efficacy at 0.3 nmol/kg, IT(Intratracheal) administered with compound followed by acetylcholine addition at 5 to 30 mins in presence of ICI-118551 and measured 1 hrs post compound treatment relative to control

Trachea = assay: Inhibition of carbachol-induced smooth muscle contraction in male albino Dunkin-Hartley guinea pig trachea; conditions: Cavia porcellus, read-out: pIC50 (converted)
in vivo [18] = conditions: rat, iv, 125 ug; remark: listed apart in the source
Description: Clearance in rat at 125 ug, iv measured after 1 hrs by LC-MS analysis

in vitro [19] = conditions: rat, plasma
Description: Stability in rat plasma assessed as half-life at 5 uM incubated for 120 mins by LC-MS/MS analysis

in vitro [20] = conditions: human, plasma
Description: Stability in human plasma assessed as half-life at 5 uM incubated for 120 mins by LC-MS/MS analysis

Cavia porcellus [21] = assay: Bronchodilating effect in histamine induced male albino Dunkin-Hartley guinea pig model assessed as maximal efficacy at 0.3 nmol/kg, IT(Intratracheal) administered with compound followed by histamine addition at 5 to 30 mins and measured 1 hrs post compound treatment relative to control
[22] = target: Voltage-dependent L-type calcium channel subunit alpha-1C (Homo sapiens, UniProt Q13936)
Description: Inhibition of human Cav1.2

Cavia porcellus [23] = assay: Inhibition of histamine induced bronchoconstriction in male albino Dunkin-Hartley guinea pig model at 0.3 nmol/kg, IT(Intratracheal) preadministered with compound followed by histamine addition at 5 to 30 mins and measured 1 hrs post compound treatment relative to control; conditions: read-out: INH
in vitro [24] = conditions: guinea pig, plasma
Description: Stability in guinea pig plasma assessed as half-life at 5 uM incubated for 120 mins by LC-MS/MS analysis

[25] = Stability in guinea pig lung S9 fraction at 1 uM incubated for 60 mins by LC-MS/MS analysis
[26] = Drug concentration in male albino Dunkin-Hartley guinea pig lung at 50 nmol/kg, IT(Intratracheal) measured after 0.083 hrs; conditions: inhaled or intranasal
in vitro [27] = conditions: rat, lung S9 fraction
Description: Stability in rat lung S9 fraction assessed as half-life at 1 uM incubated for 60 mins by LC-MS/MS analysis

Cavia porcellus [28] = assay: Inhibition of histamine induced bronchoconstriction in male albino Dunkin-Hartley guinea pig model at 1 nmol/kg, IT(Intratracheal) preadministered with compound followed by histamine addition at 5 to 30 mins and measured 1 hrs post compound treatment relative to control; conditions: read-out: INH
in vitro [29] = conditions: guinea pig, lung S9 fraction
Description: Stability in guinea pig lung S9 fraction assessed as half-life at 1 uM incubated for 60 mins by LC-MS/MS analysis

[30] = Stability in human plasma assessed as parent compound remaining at 10 uM incubated for 60 mins by LC-MS/MS analysis
Cavia porcellus [31] = assay: Inhibition of acetylcholine induced bronchoconstriction in male albino Dunkin-Hartley guinea pig model at 1 nmol/kg, IT(Intratracheal) preadministered with compound followed by acetylcholine addition at 5 to 30 mins and measured 24 hrs post compound treatment relative to control; conditions: read-out: INH
[32] = Metabolic stability in rat hepatocytes assessed as parent compound remaining at 10 uM incubated for 60 mins by LC-MS/MS analysis
[33] = target: Muscarinic acetylcholine receptor M3 (Cavia porcellus, UniProt Q8VH26); assay: Antagonist activity at M3 receptor in male albino Dunkin-Hartley guinea pig trachea assessed as inhibition of carbachol-induced smooth muscle contraction in presence of propranolol
[34] = Metabolic stability in human hepatocytes assessed as parent compound remaining at 10 uM incubated for 60 mins by LC-MS/MS analysis
Cavia porcellus [35] = organism: Cavia porcellus; assay: animal or person; conditions: albino Dunkin-Hartley, 24 h, read-out: INH
Description: Inhibition of acetylcholine induced bronchoconstriction in male albino Dunkin-Hartley guinea pig model at 1 nmol/kg, IT(Intratracheal) preadministered with compound followed by acetylcholine addition at 5 to 30 mins in presence of ICI-118551 and measured 24 hrs post compound treatment relative to control

in vitro [36] = conditions: guinea pig, hepatocytes
Description: Metabolic stability in guinea pig hepatocytes assessed as clearance measured per 10^6 cells at 1 uM incubated for 90 mins by LC-MS/MS analysis

in vitro [37] = conditions: human, lung S9 fraction
Description: Stability in human lung S9 fraction assessed as half-life at 1 uM incubated for 60 mins by LC-MS/MS analysis

[38] = Drug concentration in male albino Dunkin-Hartley guinea pig lung at 50 nmol/kg, IT(Intratracheal) measured after 3 hrs; conditions: inhaled or intranasal
Cavia porcellus [39] = assay: Inhibition of histamine induced bronchoconstriction in male albino Dunkin-Hartley guinea pig model at 1 nmol/kg, IT(Intratracheal) preadministered with compound followed by histamine addition at 5 to 30 mins and measured 24 hrs post compound treatment relative to control; conditions: read-out: INH
[40] = target: Muscarinic acetylcholine receptor M3 (Homo sapiens, UniProt P20309)
Description: Displacement of Scopolamine methyl chloride,[N-methyl-3H] from human muscarinic M3 receptor assessed as inhibition constant incubated for 2 hrs by Microbeta scintillation counter

Cavia porcellus [41] = organism: Cavia porcellus; assay: animal or person; conditions: albino Dunkin-Hartley, 1 h, read-out: INH; remark: listed apart in the source
Description: Inhibition of acetylcholine induced bronchoconstriction in male albino Dunkin-Hartley guinea pig model at 1 nmol/kg, IT(Intratracheal) preadministered with compound followed by acetylcholine addition at 5 to 30 mins in presence of ICI-118551 and measured 1 hrs post compound treatment relative to control

Cavia porcellus [42] = assay: Inhibition of acetylcholine induced bronchoconstriction in male albino Dunkin-Hartley guinea pig model at 1 nmol/kg, IT(Intratracheal) preadministered with compound followed by acetylcholine addition at 5 to 30 mins and measured 1 hrs post compound treatment relative to control; conditions: read-out: INH
[43] = Stability in rat plasma assessed as parent compound remaining at 10 uM incubated for 60 mins by LC-MS/MS analysis
[44] = Drug concentration in male albino Dunkin-Hartley guinea pig lung at 50 nmol/kg, IT(Intratracheal) measured after 24 hrs; conditions: inhaled or intranasal
[45] = Protein binding in human plasma at 5 uM incubated for 4 hrs by LC-MS/MS analysis

Sequence of Beta-2 adrenergic receptor (Homo sapiens, UniProt P07550) (P07550 whole entry): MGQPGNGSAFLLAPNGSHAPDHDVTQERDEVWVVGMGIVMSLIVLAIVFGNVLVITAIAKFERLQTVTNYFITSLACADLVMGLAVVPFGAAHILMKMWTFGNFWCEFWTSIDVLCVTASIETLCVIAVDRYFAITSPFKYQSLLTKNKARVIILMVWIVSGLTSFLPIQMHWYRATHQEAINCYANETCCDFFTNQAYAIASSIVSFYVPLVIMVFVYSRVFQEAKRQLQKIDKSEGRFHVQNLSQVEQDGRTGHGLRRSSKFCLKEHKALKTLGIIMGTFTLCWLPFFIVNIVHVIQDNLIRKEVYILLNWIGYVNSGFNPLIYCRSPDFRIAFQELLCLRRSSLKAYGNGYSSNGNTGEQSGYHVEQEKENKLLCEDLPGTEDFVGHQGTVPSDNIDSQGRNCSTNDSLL
Sequence of Beta-2 adrenergic receptor (Cavia porcellus, UniProt Q8K4Z4) (Q8K4Z4 whole entry): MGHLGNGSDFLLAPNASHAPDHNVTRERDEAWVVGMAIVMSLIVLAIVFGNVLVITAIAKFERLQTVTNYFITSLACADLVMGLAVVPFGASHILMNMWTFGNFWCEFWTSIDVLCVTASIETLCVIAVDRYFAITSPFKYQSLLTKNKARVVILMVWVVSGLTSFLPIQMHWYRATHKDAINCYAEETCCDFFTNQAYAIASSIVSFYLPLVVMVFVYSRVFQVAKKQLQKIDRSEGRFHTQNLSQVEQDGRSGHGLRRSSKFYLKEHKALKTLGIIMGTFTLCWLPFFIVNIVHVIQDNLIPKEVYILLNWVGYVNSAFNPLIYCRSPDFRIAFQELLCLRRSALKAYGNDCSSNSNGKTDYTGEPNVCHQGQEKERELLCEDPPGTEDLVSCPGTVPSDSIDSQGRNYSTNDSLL
Sequence of Voltage-dependent L-type calcium channel subunit alpha-1C (Q13936 whole entry): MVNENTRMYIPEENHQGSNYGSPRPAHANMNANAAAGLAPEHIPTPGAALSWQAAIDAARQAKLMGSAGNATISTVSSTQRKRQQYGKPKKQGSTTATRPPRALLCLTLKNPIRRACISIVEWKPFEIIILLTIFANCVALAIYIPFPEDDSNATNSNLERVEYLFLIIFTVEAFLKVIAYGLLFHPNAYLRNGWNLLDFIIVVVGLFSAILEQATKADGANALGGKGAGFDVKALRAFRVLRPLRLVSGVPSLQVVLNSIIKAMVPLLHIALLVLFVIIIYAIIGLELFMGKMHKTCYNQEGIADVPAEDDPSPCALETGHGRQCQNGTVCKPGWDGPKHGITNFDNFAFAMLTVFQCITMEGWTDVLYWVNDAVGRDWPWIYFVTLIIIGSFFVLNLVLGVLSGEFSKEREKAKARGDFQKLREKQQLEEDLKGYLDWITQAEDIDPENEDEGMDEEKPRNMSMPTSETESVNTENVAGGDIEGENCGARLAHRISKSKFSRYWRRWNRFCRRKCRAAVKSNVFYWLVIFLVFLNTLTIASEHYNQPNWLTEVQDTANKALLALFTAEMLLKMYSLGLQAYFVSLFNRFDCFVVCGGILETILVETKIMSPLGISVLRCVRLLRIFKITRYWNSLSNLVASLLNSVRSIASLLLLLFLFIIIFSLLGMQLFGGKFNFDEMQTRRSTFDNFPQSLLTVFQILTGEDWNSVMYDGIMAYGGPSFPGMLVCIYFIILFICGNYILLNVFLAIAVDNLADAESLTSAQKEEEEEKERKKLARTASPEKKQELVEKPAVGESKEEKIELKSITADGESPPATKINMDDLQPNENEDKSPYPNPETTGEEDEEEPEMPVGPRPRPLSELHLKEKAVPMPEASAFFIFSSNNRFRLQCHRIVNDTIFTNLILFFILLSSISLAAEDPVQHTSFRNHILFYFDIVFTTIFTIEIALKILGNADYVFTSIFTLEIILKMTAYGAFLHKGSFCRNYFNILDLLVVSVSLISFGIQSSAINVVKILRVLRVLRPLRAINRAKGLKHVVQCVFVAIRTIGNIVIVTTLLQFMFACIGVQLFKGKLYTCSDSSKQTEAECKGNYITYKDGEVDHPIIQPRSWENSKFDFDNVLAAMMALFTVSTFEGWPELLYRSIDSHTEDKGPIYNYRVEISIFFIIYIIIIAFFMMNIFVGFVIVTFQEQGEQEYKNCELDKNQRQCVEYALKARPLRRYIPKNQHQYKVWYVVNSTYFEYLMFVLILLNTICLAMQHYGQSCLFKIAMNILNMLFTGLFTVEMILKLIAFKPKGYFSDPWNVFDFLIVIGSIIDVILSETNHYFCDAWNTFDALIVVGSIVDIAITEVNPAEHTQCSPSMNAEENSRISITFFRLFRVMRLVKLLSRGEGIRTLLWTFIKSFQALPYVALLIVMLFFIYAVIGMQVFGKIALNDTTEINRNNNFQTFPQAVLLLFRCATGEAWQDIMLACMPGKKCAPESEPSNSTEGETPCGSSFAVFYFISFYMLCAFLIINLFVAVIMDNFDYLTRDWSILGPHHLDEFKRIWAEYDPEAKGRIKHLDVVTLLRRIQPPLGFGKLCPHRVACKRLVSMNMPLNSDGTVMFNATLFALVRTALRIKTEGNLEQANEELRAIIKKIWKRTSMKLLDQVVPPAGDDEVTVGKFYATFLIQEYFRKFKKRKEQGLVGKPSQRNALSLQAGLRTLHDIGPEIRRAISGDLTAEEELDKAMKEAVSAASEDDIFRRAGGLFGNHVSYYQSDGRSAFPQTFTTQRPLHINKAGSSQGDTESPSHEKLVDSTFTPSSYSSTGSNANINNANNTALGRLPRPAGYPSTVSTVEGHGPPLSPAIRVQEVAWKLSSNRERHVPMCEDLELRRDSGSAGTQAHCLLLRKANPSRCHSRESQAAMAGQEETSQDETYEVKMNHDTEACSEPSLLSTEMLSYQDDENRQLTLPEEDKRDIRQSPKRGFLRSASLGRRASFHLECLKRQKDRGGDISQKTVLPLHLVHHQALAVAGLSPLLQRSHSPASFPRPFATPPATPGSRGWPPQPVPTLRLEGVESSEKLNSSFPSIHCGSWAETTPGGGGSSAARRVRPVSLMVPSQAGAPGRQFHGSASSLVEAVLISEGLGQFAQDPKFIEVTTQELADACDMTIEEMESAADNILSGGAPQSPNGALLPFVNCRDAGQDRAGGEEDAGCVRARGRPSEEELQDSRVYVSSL
Sequence of Muscarinic acetylcholine receptor M3 (Cavia porcellus, UniProt Q8VH26) (Q8VH26 whole entry): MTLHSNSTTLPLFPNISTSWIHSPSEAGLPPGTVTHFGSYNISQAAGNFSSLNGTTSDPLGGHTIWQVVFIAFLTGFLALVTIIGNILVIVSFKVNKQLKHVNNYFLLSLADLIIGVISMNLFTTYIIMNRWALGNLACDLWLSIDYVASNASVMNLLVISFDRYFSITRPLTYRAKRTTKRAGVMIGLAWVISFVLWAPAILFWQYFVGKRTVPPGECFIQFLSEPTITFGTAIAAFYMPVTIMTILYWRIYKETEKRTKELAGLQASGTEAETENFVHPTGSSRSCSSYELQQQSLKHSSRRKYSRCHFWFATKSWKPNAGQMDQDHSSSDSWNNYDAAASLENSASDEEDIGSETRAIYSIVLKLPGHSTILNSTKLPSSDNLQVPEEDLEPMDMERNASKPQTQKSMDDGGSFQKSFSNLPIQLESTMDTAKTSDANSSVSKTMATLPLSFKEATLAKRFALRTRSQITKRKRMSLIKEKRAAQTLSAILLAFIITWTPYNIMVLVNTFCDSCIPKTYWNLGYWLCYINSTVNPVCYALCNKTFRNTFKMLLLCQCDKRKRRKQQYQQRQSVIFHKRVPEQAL
Sequence of Voltage-gated inwardly rectifying potassium channel KCNH2 (Q12809 whole entry): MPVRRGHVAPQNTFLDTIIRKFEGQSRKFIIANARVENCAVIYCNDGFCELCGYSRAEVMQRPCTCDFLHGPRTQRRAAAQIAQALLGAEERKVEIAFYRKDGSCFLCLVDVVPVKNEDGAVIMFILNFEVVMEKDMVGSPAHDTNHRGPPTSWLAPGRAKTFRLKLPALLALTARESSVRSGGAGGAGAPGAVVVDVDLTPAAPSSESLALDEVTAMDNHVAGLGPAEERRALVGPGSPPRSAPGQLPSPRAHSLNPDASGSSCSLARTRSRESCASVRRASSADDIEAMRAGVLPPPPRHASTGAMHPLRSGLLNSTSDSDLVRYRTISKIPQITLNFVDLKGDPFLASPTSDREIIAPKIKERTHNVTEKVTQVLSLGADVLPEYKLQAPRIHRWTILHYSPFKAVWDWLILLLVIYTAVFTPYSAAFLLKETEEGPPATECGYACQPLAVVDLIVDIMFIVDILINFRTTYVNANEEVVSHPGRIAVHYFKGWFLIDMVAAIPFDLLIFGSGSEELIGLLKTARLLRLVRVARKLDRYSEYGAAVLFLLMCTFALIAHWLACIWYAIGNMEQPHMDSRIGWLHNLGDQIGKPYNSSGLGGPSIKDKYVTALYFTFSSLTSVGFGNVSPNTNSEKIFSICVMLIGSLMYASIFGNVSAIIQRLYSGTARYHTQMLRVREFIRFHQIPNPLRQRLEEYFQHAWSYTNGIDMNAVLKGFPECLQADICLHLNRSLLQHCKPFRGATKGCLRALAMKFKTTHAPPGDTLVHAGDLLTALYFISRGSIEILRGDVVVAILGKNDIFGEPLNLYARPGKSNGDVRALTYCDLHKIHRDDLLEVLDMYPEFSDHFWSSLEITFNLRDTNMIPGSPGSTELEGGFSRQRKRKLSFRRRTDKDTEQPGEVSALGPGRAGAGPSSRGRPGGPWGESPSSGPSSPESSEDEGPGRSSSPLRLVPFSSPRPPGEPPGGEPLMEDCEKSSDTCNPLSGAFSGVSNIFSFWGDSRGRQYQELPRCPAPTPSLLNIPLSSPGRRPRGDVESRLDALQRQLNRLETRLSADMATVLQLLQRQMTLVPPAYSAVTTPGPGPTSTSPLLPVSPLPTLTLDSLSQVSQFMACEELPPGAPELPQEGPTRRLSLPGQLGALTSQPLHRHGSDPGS

## CN1CCC[C@@H](OC(=O)[C@](O)(c2ccccc2)c2cccc(OCCCNC(=O)c3ccc(CNC[C@H](O)c4ccc(O)c5[nH]c(=O)ccc45)cc3)c2)C1
[1]
  IC50: 128000 nM
Cavia porcellus [2]
  Emax at 0.0003 µmol/kg: 89%
[3]
  IC50: 310000 nM
Cavia porcellus [4]
  inhibition in vivo at 0.0003 µmol/kg: 84%
[5]
  half-life: 25 h
[6]
  IC50: 0.1 nM
[7]
  Ki: 0.0251 nM
Cavia porcellus [8]
  inhibition in vivo at 0.0003 µmol/kg: 54%
Cavia porcellus [9]
  inhibition in vivo at 0.0003 µmol/kg: 57%
Cavia porcellus [10]
  inhibition in vivo at 0.0003 µmol/kg: 78%
In vivo [11]
  Vd at 1 h: 0.75 L/kg
Cavia porcellus [12]
  inhibition in vivo at 0.0003 µmol/kg: 89%
In vivo [13]
  inhibition at 3.167 h, 1000 µM: 33%
In vivo [14]
  inhibition at 3.167 h, 3000 µM: 43%
In vitro [15]
  hepatocyte CLint at 1.5 h, 1 µM: 3 µL/min/1e6 cells
In vitro [16]
  hepatocyte CLint at 1.5 h, 1 µM: 12 µL/min/1e6 cells
Cavia porcellus [17]
  Emax at 0.0003 µmol/kg: 89%
Trachea
  IC50: 0.126 nM
In vivo [18]
  clearance at 1 h: 75 mL/min/kg
In vitro [19]
  half-life at 2 h, 5 µM: 0.15 h
In vitro [20]
  half-life at 2 h, 5 µM: > 2.5 h
Cavia porcellus [21]
  Emax at 0.0003 µmol/kg: 89%
[22]
  IC50: 314000 nM
Cavia porcellus [23]
  inhibition in vivo at 0.0003 µmol/kg: 89%
In vitro [24]
  half-life at 2 h, 5 µM: 1.3 h
[25]
  remaining at 1 h, 1 µM: 91.1%

## O=C(NCCCOc1cccc([C@](O)(C(=O)OCC2CCN(Cc3ccccc3)CC2)c2ccccc2)c1)c1ccc(CNC[C@H](O)c2ccc(O)c3[nH]c(=O)ccc23)cc1
[26]
  concentration at 0.083 h: 1270 ng/g
In vitro [27]
  half-life at 1 h, 1 µM: 2.37 h
Cavia porcellus [28]
  inhibition in vivo at 0.001 µmol/kg: 66%
In vitro [29]
  half-life at 1 h, 1 µM: 0.35 h
[30]
  remaining at 1 h, 10 µM: > 99%
Cavia porcellus [31]
  inhibition in vivo at 0.001 µmol/kg: 95%
[6]
  IC50: 0.316 nM
[7]
  Ki: 0.1 nM
Cavia porcellus [10]
  inhibition in vivo at 0.0003 µmol/kg: 23%
Cavia porcellus [12]
  inhibition in vivo at 0.0003 µmol/kg: 49%
[32]
  remaining at 1 h, 10 µM: 70%
[33]
  IC50: 0.398 nM
[34]
  remaining at 1 h, 10 µM: 91%
Cavia porcellus [35]
  inhibition in vivo at 0.001 µmol/kg: 79%
In vitro [36]
  hepatocyte CLint at 1.5 h, 1 µM: 316 µL/min/1e6 cells
In vitro [37]
  half-life at 1 h, 1 µM: 3.22 h
In vitro [15]
  hepatocyte CLint at 1.5 h, 1 µM: 25 µL/min/1e6 cells
[38]
  concentration at 3 h: 1160 ng/g
In vitro [16]
  hepatocyte CLint at 1.5 h, 1 µM: 30 µL/min/1e6 cells
Cavia porcellus [39]
  inhibition in vivo at 0.001 µmol/kg: 5%
[40]
  Ki: 0.398 nM
Trachea
  IC50: 0.501 nM
Cavia porcellus [41]
  inhibition in vivo at 0.001 µmol/kg: 87%
In vitro [19]
  half-life at 2 h, 5 µM: 0.45 h
In vitro [20]
  half-life at 2 h, 5 µM: > 2.5 h
Cavia porcellus [42]
  inhibition in vivo at 0.001 µmol/kg: 94%
[43]
  remaining at 1 h, 10 µM: 67%
[44]
  concentration at 24 h: 1170 ng/g
Cavia porcellus [23]
  inhibition in vivo at 0.0003 µmol/kg: 34%
In vitro [24]
  half-life at 2 h, 5 µM: < 0.0833 h
[25]
  remaining at 1 h, 1 µM: 14%
[45]
  fraction unbound at 4 h, 5 µM: 0.01
